Measurements: patent US20070280918A1, “Multitherapy Against Cancer” (priority 2004, published 2007)
pIC50: −log10 of the molar value. “And” between values parts separate entries of the source, which are not always exact repeats. Equal entries are not always repeated. Where two headings read alike, the source gives them in different places.

Columns and labels:
[1] = tested on: type L1210 intra-peritoneal lymphoma; assay: Mortality of mice carrying type L1210 intra-peritoneal lymphoma; format: in vivo; settings: for Ratio % Treated/controls (T/C%): median survival times; for anti-tumour effectiveness (in words): T/C% greater than 125%
Description: Mice carrying a type L1210 intra-peritoneal lymphoma were treated for 7 days in parallel with the following preparations: • SYN857 (A): chlorophosphoenol pyruvate • SYN856 (B): chlorophosphoenol pyruvate and carnitine ester • BCNU: carmustine • Vehicle: control
The weight of the animals for each group as well as the individual weight curves as a function of time were plotted and the mortality of the animals was monitored.
The parameter T/C% is calculated with the ratio of the median survival time of the animals in the group considered to the median survival time of the animals in the control group, all multiplied by 100.

Calu-6 [2] = assay: Fraction affected (Fa) and synergy index (CI) on lung cell line Calu-6, betaine citrate/metformin; format: cell-based
Excerpt: The cell line adopted for carrying out the experiment is the line Calu-6.
These Fa values are used in the calculation of the synergy index (CI) which makes it possible to report the presence or absence of synergy between the products.

Calu-6 [3] = assay: Growth inhibition of Calu-6 cells, products alone (IC50) and in combination (CI, Chou and Talalay); format: cell-based; settings: for IC50 (order of magnitude, in words): the cell lines tested (Calu-6 and NCI-H460)
Description: (§1) 1) Prior determination of the IC50 of the products taken in isolation on the cell lines.
(§2) Different concentration ratios were established, which were tested on the different cell lines.
(§3) For each cell line three tests were carried out.

NCI-H460 = assay: Growth inhibition of NCI-H460 cells, products alone (IC50) and in combination (CI, Chou and Talalay); format: cell-based; settings: Avandia alone
Description: as §1, §2, §3

[4] = product alone at 0.10 mM, three experiments
[5] = product alone at 0.20 mM, three experiments
[6] = product alone at 1.00 mM, three experiments
[7] = product alone at 2.00 mM, three experiments
[8] = product alone at 4.00 mM, three experiments

Row | Compound | anti-tumour effectiveness (in words) ([1]; L1210 lymphoma mice) | Fa Exp 1 (Calu-6 [2]; product alone at 0.05 mM) | Fa Exp 1 (Calu-6 [2]; product alone at 0.10 mM) | Fa Exp 3 (Calu-6 [2]; product alone at 0.10 mM) | Average Fa (Calu-6 [2]; [4]) | Fa Exp 1 (Calu-6 [2]; product alone at 0.20 mM) | Fa Exp 3 (Calu-6 [2]; product alone at 0.20 mM) | Average Fa (Calu-6 [2]; [5]) | Fa Exp 1 (Calu-6 [2]; product alone at 0.25 mM) | Fa Exp 2 (Calu-6 [2]; product alone at 0.25 mM) | Fa Exp 3 (Calu-6 [2]; product alone at 0.25 mM) | Fa Exp 1 (Calu-6 [2]; product alone at 0.50 mM) | Fa Exp 2 (Calu-6 [2]; product alone at 0.50 mM) | Fa Exp 3 (Calu-6 [2]; product alone at 0.50 mM) | Fa Exp 1 (Calu-6 [2]; product alone at 1.00 mM) | Fa Exp 2 (Calu-6 [2]; product alone at 1.00 mM) | Fa Exp 3 (Calu-6 [2]; product alone at 1.00 mM) | Average Fa (Calu-6 [2]; [6]) | Fa Exp 1 (Calu-6 [2]; product alone at 2.00 mM) | Fa Exp 2 (Calu-6 [2]; product alone at 2.00 mM) | other results
1 | chlorophosphoenol pyruvate [SYN857] | anti-tumour effectiveness | – | – | – | – | – | – | – | – | – | – | – | – | – | – | – | – | – | – | – | Average number of days of survival ± SD ([1]; 70 mg/kg/inj.): 8.78 ± 0.42 days; Median value ([1]; 70 mg/kg/inj.): 9 days; Ratio % Treated/controls (T/C%) ([1]; 70 mg/kg/inj.): >128.5%; Number of dead mice ([1]; 70 mg/kg/inj., out of 10 mice, at 9 days): 9; Average number of days of survival ± SD ([1]; 136 mg/kg/inj.): 9.00 ± 00.0 days; Median value ([1]; 136 mg/kg/inj.): 9 days; Ratio % Treated/controls (T/C%) ([1]; 136 mg/kg/inj.): >128.5%; Number of dead mice ([1]; 136 mg/kg/inj., out of 10 mice, at 9 days): 4
2 | betaine citrate [Betain citrate] | – | 0.00 | 0.00 | 0.00 | 0.02 | 0.12 | 0.00 | 0.01 | 0.02 | 0.08 | 0.00 | 0.31 | 0.15 | 0.26 | 0.59 | 0.18 | 0.63 | 0.24 | 0.69 | 0.37 | Fa Exp 2 (Calu-6 [2]; product alone at 0.10 mM): 0.02; Average Fa (Calu-6 [2]; product alone at 0.25 mM, three experiments): 0.06; Average Fa (Calu-6 [2]; product alone at 0.50 mM, three experiments): 0.03; Fa Exp 3 (Calu-6 [2]; product alone at 2.00 mM): 0.77; Average Fa (Calu-6 [2]; [7]): 0.47; Fa Exp 1 (Calu-6 [2]; product alone at 4.00 mM): 0.77; Fa Exp 2 (Calu-6 [2]; product alone at 4.00 mM): 0.61; Fa Exp 3 (Calu-6 [2]; product alone at 4.00 mM): 0.83; Average Fa (Calu-6 [2]; [8]): 0.61; IC50 (order of magnitude, in words) (Calu-6 [3]): of the order of a millimol
3 | CN(CCOc1ccc(CC2SC(=O)NC2=O)cc1)c1ccccn1 (centres unmarked) [Avandia ®, rosiglitazone] | – | – | – | – | – | – | – | – | – | – | – | – | – | – | – | – | – | – | – | – | pIC50 (Calu-6 [3]; Calu-6, Avandia alone): 4.85; IC50 (order of magnitude, in words) (Calu-6 [3]): of the order of ten micromols; pIC50 (NCI-H460): 5.05
4 | CN(C)C(=N)N=C(N)N [Met, metformin] | – | 0.03 | 0.08 | 0.04 | 0.06 | 0.04 | 0.06 | 0.05 | 0.06 | 0.06 | 0.08 | 0.08 | 0.09 | 0.13 | 0.18 | 0.19 | 0.25 | 0.21 | 0.03 | 0.31 | Average Fa (Calu-6 [2]): 0.07 and 0.10; Fa Exp 2 (Calu-6 [2]; product alone at 0.20 mM): 0.04; Fa Exp 3 (Calu-6 [2]; product alone at 2.00 mM): 0.36; Average Fa (Calu-6 [2]; [7]): 0.32; Fa Exp 1 (Calu-6 [2]; product alone at 4.00 mM): 0.36; Fa Exp 2 (Calu-6 [2]; product alone at 4.00 mM): 0.40; Fa Exp 3 (Calu-6 [2]; product alone at 4.00 mM): 0.46; Average Fa (Calu-6 [2]; [8]): 0.41
5 | chlorophosphoenol pyruvate and carnitine ester [SYN856] | anti-tumour effectiveness | – | – | – | – | – | – | – | – | – | – | – | – | – | – | – | – | – | – | – | Average number of days of survival ± SD ([1]; 30 mg/kg/inj.): 9.00 ± 0.00 days; Median value ([1]; 30 mg/kg/inj.): 9 days; Ratio % Treated/controls (T/C%) ([1]; 30 mg/kg/inj.): >128.5%; Average number of days of survival ± SD ([1]; 60 mg/kg/inj.): 9.00 ± 0.00 days; Median value ([1]; 60 mg/kg/inj.): 9 days; Ratio % Treated/controls (T/C%) ([1]; 60 mg/kg/inj.): >128.5%; Number of dead mice ([1]; 60 mg/kg/inj., out of 10 mice, at 9 days): 6; effective concentration compared with chlorophosphoenol pyruvate alone (in words) ([1]; L1210 lymphoma mice): effective at a lower concentration than chlorophosphoenol pyruvate alone
6 | O=NN(CCCl)C(=O)NCCCl [BCNU ®, carmustine] | – | – | – | – | – | – | – | – | – | – | – | – | – | – | – | – | – | – | – | – | Ratio % Treated/controls (T/C%) ([1]; 15 mg/kg/inj.): >128.5%; Number of dead mice ([1]; 15 mg/kg/inj., positive control): 0; Number of dead mice ([1]; 15 mg/kg/inj., positive control, listed as BCNU): still alive
